In paper PMC3914206:

Key:
Format in all cases: binding
Details in all cases: Compound Concentration 10 µM
[1] = target: T1, panel of 442 kinases (Homo sapiens, UniProt Q9NYY3)
T1 construct: purchased KINOMEscan
Description: (§1) We assessed the selectivity of members of this scaffold using the KINOMEscan methodology across a near comprehensive panel of 442 kinases [[18,27]].

[2] = target: T2, panel of 442 kinases (Homo sapiens, UniProt Q00536)
T2 construct: purchased KINOMEscan
Description: as §1

[3] = target: T3, panel of 442 kinases (Homo sapiens, UniProt O00750)
T3 construct: purchased KINOMEscan
Description: as §1

T3 sequence (O00750 whole entry): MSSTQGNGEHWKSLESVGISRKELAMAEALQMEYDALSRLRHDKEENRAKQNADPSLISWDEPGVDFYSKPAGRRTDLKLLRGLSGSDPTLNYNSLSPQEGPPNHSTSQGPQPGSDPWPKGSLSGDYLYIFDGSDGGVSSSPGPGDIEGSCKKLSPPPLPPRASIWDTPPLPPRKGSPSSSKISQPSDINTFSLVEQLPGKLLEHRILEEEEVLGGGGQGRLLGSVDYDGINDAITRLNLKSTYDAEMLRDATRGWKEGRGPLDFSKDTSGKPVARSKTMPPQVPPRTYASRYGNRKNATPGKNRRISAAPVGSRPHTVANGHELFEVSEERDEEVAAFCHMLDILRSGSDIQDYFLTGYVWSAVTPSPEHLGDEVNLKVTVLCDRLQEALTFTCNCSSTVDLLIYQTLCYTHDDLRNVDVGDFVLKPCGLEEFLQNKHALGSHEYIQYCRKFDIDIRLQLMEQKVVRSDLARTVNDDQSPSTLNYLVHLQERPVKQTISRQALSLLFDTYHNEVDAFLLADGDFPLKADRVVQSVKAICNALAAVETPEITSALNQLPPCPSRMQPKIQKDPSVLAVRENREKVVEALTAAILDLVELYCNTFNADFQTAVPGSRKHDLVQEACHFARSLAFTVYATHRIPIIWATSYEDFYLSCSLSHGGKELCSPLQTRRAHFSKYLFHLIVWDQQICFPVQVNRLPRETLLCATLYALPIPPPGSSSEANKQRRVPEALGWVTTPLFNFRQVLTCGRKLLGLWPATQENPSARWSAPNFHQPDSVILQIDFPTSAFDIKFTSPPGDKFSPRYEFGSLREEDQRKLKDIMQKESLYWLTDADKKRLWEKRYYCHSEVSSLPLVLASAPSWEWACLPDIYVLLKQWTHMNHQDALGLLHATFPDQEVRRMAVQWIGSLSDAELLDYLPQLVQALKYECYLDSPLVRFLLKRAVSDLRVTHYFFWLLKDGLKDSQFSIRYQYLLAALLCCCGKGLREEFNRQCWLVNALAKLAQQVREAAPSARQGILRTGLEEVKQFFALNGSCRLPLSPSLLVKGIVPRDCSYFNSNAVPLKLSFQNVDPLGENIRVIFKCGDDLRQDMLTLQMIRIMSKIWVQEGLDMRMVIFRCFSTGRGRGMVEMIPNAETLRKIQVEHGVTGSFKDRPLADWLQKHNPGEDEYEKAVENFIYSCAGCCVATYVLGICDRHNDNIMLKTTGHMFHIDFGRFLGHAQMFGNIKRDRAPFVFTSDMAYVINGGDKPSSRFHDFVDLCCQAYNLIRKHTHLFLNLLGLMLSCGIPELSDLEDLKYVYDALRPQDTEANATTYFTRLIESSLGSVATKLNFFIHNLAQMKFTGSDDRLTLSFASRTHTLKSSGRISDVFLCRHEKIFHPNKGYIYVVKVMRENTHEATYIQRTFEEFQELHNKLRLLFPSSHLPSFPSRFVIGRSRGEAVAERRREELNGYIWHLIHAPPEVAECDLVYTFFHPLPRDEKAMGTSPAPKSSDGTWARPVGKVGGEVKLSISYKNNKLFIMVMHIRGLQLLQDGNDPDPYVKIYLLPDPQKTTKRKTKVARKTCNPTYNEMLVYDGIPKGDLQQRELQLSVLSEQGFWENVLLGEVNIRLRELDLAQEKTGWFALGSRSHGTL
T1 sequence (Q9NYY3 whole entry): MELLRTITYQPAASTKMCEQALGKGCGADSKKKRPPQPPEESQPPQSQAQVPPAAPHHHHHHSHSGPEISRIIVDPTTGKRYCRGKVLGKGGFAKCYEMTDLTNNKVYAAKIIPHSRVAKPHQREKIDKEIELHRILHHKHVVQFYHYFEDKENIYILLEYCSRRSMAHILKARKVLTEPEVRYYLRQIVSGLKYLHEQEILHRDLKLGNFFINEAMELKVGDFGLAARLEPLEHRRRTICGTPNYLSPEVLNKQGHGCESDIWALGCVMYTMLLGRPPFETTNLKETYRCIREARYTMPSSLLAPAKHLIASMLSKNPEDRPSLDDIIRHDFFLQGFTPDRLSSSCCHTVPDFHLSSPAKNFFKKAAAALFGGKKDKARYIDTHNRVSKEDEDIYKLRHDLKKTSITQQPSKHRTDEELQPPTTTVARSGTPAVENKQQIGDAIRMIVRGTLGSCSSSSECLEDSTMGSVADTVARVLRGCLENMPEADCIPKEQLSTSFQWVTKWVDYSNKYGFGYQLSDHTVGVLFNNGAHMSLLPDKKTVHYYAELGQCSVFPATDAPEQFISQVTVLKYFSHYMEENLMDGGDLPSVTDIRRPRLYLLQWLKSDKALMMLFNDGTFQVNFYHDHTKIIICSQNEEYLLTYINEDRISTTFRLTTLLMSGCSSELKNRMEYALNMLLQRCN
T2 sequence (Q00536 whole entry): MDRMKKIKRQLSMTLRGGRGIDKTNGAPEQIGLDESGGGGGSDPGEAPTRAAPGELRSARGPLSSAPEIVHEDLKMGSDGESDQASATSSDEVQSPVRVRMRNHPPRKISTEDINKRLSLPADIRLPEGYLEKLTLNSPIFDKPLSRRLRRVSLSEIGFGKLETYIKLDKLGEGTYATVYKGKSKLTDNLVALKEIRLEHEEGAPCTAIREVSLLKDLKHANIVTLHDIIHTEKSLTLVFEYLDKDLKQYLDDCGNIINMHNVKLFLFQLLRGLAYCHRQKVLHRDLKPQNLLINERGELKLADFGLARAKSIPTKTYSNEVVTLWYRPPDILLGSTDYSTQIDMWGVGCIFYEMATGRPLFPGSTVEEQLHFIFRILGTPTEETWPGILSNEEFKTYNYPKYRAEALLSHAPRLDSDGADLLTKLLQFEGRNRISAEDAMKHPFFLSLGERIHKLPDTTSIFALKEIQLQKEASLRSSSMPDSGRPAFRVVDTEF

SMILES: COc1cc(C(=O)N2CCC(N3CCN(C)CC3)CC2)ccc1Nc1ncc2c(n1)N1CCc3cccc(c31)C(=O)N2C [Compound 24]
- KINOMEscan: PLK2 [1]: 8.8

SMILES: CCOc1cc(C(=O)N2CCC(N3CCN(C)CC3)CC2)ccc1Nc1ncc2c(n1)N(C1CCCC1)c1ccccc1C(=O)N2C [Compound 26]
- KINOMEscan: PLK2 [1]: 97
- KINOMEscan: PCTK1 [2]: 100
- KINOMEscan: PIK3C2B [3]: 100

SMILES: COc1cc(C(=O)N2CCC(N3CCN(C)CC3)CC2)ccc1Nc1ncc2c(n1)N(C1CCCC1)c1ccccc1C(=O)N2C [Compound 25, 11-cyclopentyl-2-((2-methoxy-4-(4-(4-methylpiperazin-1-yl)piperidine-1-carbonyl)phenyl)amino)-5-methyl-5H-benzo[e]pyrimido[5,4-b][1,4]diazepin-6(11H)-one]
- KINOMEscan: PLK2 [1]: 100
- KINOMEscan: PCTK1 [2]: 100
- KINOMEscan: PIK3C2B [3]: 100

SMILES: COc1cc(C(=O)N2CCC(N3CCN(C)CC3)CC2)ccc1Nc1ncc2c(n1)N(C)c1ccccc1C(=O)N2C [15 (LRRK2-IN-1)]
- KINOMEscan: PLK2 [1]: 100
- KINOMEscan: PCTK1 [2]: 96
- KINOMEscan: PIK3C2B [3]: 100
